Test results as given in patent publication US11629171B2, “Beta-hairpin peptidomimetics” (POLYPHOR AG, priority 2017, dated 2023).
Converted amounts (≈) assume the structure as drawn. Where a SMILES comes first, the peptide text is derived from it. Bridges are numbered along the chain shown (N, C = ends). Roman numbers before positions name the chains, in order. [ ]: non-standard residue; d: D form. The star is where a group is joined. Leu(3R-OH) = CC(C)[C@@H](O)[C@H](N)C(=O)O; Thr(ol) = C[C@@H](O)[C@H](N)CO; Tle = CC(C)(C)[C@H](N)C(=O)O; dOrn = NCCC[C@@H](N)C(=O)O; Hiv = CC(C)[C@H](O)C(=O)O; Isovaleryl = CC(C)CC(=O)*; dDab = NCC[C@@H](N)C(=O)O; hSer = N[C@@H](CCO)C(=O)O; NHCH(CH2OH)2 = OCC(CO)N*; Nle = CCCC[C@H](N)C(=O)O; Orn = NCCC[C@H](N)C(=O)O; Dab = NCC[C@H](N)C(=O)O; Dap = NC[C@H](N)C(=O)O

Columns and labels:
Type in all cases: cell-based
[1] = system: Acinetobacter baumannii 872842; details: 872842
Summary of the method: (§1)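 Cation-adjusted MH-II broth, 0.002% polysorbate 80, inoculum near 10^6 CFU/mL. MIC read visually after 18-20 h, 35° C; units μg/mL.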

[2] = system: Klebsiella pneumoniae SSI #3010; details: SSI #3010
Summary of the method: as §1

[3] = system: Acinetobacter baumannii DSM 30008; details: DSM 30008
Summary of the method: as §1

[4] = system: Enterobacter cloacae 848840; details: 848840
Summary of the method: as §1

[5] = system: Escherichia coli 926415; details: 926415
Summary of the method: as §1

[6] = system: Pseudomonas aeruginosa ATCC 27853; details: ATCC 27853
Summary of the method: as §1

[7] = system: Escherichia coli ATCC 25922; details: ATCC 25922
Summary of the method: as §1

[8] = system: Klebsiella pneumoniae 968733; details: 968733
Summary of the method: as §1

[9] = system: human red blood cells (hRBC); assay: Hemolysis; details: red cells of human, 1 h, 200
Summary of the method: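 Percent lysis of human red cells was derived from OD540 of the supernatant, referenced to 2% Triton X-100, after a 1 h, 37° C incubation of 20% (v/v) cells with 200 μg/mL peptide.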

| Structure (SMILES) | MIC [1] [µg/mL] | MIC [2] [µg/mL] | MIC [3] [µg/mL] | MIC [4] [µg/mL] | MIC [5] [µg/mL] | MIC [6] [µg/mL] | MIC [7] [µg/mL] | MIC [8] [µg/mL] | Hemolysis at 200 μg/mL [9] [%] |
| --- | --- | --- | --- | --- | --- | --- | --- | --- | --- |
| CC(=O)N[C@H](C(=O)N[C@H]1CSSC[C@@H](C(=O)N[C@@H](CO)C(N)=O)NC(=O)[C@H](C(C)(C)C)NC(=O)[C@H](CCC(=O)O)NC(=O)[C@H](Cc2c[nH]c3ccccc23)NC(=O)[C@H](CCO)NC(=O)[C@@H](CCN)NC(=O)[C@H](CCC(=O)N[C@@H](CCN)C(=O)N[C@H](C(=O)N[C@@H](CN)C(=O)N[C@H]2CCNC(=O)[C@H]([C@@H](C)O)NC(=O)[C@H](CCN)NC(=O)[C@H](CCN)NC(=O)[C@H](CC(C)C)NC(=O)[C@@H](CC(C)C)NC(=O)[C@H](CCN)NC2=O)[C@@H](C)O)NC(=O)[C@H](CCN)NC(=O)[C@H](Cc2ccc(O)cc2)NC1=O)C(C)C [Ex. 156] (I: Ac-VCY[Dab]E[dDab][hSer]WE[Tle]CS-NH2 / II: [Dab]T[Dap][Dab][Dab][dL]L[Dab][Dab]T; disulfide I:2-I:11; amide I:5-II:N; lactam II:4-II:C) | 0.125 (≈ 0.0506 µM) | 0.125 (≈ 0.0506 µM) | 0.0625 (≈ 0.0253 µM) | 0.125 (≈ 0.0506 µM) | 0.125 (≈ 0.0506 µM) | 0.125 (≈ 0.0506 µM) | 0.03125 (≈ 0.0127 µM) | 0.25 (≈ 0.101 µM) | <1 |
| CC(C)CC(=O)N[C@H]1CSSC[C@@H](C(=O)N[C@H](CO)[C@@H](C)O)NC(=O)[C@H](C(C)(C)C)NC(=O)[C@H](CO)NC(=O)[C@H](Cc2c[nH]c3ccccc23)NC(=O)[C@H]([C@@H](C)O)NC(=O)[C@@H](CCN)NC(=O)[C@H](CCC(=O)N[C@@H](CCN)C(=O)N[C@H](C(=O)N[C@@H](CCN)C(=O)N[C@H]2CCNC(=O)[C@H]([C@@H](C)O)NC(=O)[C@H](CCN)NC(=O)[C@H](CCN)NC(=O)[C@H](CC(C)C)NC(=O)[C@@H](CC(C)C)NC(=O)[C@H](CCN)NC2=O)[C@@H](C)O)NC(=O)[C@H](CN)NC(=O)[C@H](Cc2ccc(O)cc2)NC1=O [Example 4] (I: Isovaleryl-CY[Dap]E[dDab]TWS[Tle]C[Thr(ol)] / II: [Dab]T[Dab][Dab][Dab][dL]L[Dab][Dab]T; disulfide I:1-I:10; amide I:4-II:N; lactam II:4-II:C) | 0.125 (≈ 0.0527 µM) | 0.125 (≈ 0.0527 µM) | 0.0625 (≈ 0.0264 µM) | 0.25 (≈ 0.105 µM) | 0.25 (≈ 0.105 µM) | 0.125 (≈ 0.0527 µM) | 0.125 (≈ 0.0527 µM) | 0.5 (≈ 0.211 µM) | 1 |
| CC(=O)N[C@H](C(=O)N[C@H]1CCNC(=O)C[C@@H](C(=O)N[C@@H](CO)C(N)=O)NC(=O)[C@H](C(C)(C)C)NC(=O)[C@H](CO)NC(=O)[C@H](Cc2c[nH]c3ccccc23)NC(=O)[C@H](CCN)NC(=O)[C@@H](CCN)NC(=O)[C@H](CCC(=O)N[C@@H](CCN)C(=O)N[C@H](C(=O)N[C@@H](CN)C(=O)N[C@H]2CCNC(=O)[C@H]([C@@H](C)O)NC(=O)[C@H](CCN)NC(=O)[C@H](CCN)NC(=O)[C@H](CC(C)C)NC(=O)[C@@H](CC(C)C)NC(=O)[C@H](CCN)NC2=O)[C@@H](C)O)NC(=O)[C@H](CO)NC(=O)[C@H](Cc2ccc(O)cc2)NC1=O)C(C)C [Ex. 265] (I: Ac-V[Dab]YSE[dDab][Dab]WS[Tle]DS-NH2 / II: [Dab]T[Dap][Dab][Dab][dL]L[Dab][Dab]T; lactam I:2-I:11, II:4-II:C; amide I:5-II:N) | 0.125 (≈ 0.052 µM) | 0.0625 (≈ 0.026 µM) | 0.0625 (≈ 0.026 µM) | 0.5 (≈ 0.208 µM) | 0.125 (≈ 0.052 µM) | 0.125 (≈ 0.052 µM) | 0.0625 (≈ 0.026 µM) | 0.25 (≈ 0.104 µM) | <1 |
| CC(=O)N[C@H](C(=O)N[C@H]1CCCNC(=O)[C@@H](CCCN)NC(=O)[C@H](C(C)(C)C)NC(=O)[C@H](CO)NC(=O)[C@H](Cc2c[nH]c3ccccc23)NC(=O)[C@H](CCO)NC(=O)[C@@H](CCN)NC(=O)[C@H](CCC(=O)N[C@@H](CCN)C(=O)N[C@H](C(=O)N[C@@H](CN)C(=O)N[C@H]2CCNC(=O)[C@H]([C@@H](C)O)NC(=O)[C@H](CCN)NC(=O)[C@H](CCN)NC(=O)[C@H](CC(C)C)NC(=O)[C@@H](CC(C)C)NC(=O)[C@H](CCN)NC2=O)[C@@H](C)O)NC(=O)[C@H](CO)NC(=O)[C@H](Cc2ccc(O)cc2)NC1=O)C(C)C [Ex. 29] (I: Ac-V[Orn]YSE[dDab][hSer]WS[Tle][dOrn] / II: [Dab]T[Dap][Dab][Dab][dL]L[Dab][Dab]T; lactam I:2-I:C, II:4-II:C; amide I:5-II:N) | 1 (≈ 0.428 µM) | 0.125 (≈ 0.0536 µM) | 0.125 (≈ 0.0536 µM) | 0.0625 (≈ 0.0268 µM) | 4 (≈ 1.71 µM) | 0.25 (≈ 0.107 µM) | 0.0625 (≈ 0.0268 µM) | 8 (≈ 3.43 µM) | 1 |
| CC(=O)N[C@H](C(=O)N[C@H]1CSSC[C@@H](C(N)=O)NC(=O)[C@H](C(C)(C)C)NC(=O)[C@H](CO)NC(=O)[C@H](Cc2c[nH]c3ccccc23)NC(=O)[C@H](CCN)NC(=O)[C@@H](CCN)NC(=O)[C@H](CCC(=O)N[C@@H](CCN)C(=O)N[C@H](C(=O)N[C@@H](CN)C(=O)N[C@H]2CCNC(=O)[C@H]([C@@H](C)O)NC(=O)[C@H](CCN)NC(=O)[C@H](CCN)NC(=O)[C@H](CC(C)C)NC(=O)[C@@H](CC(C)C)NC(=O)[C@H](CCN)NC2=O)[C@@H](C)O)NC(=O)[C@H](CN)NC(=O)[C@H](Cc2ccc(O)cc2)NC1=O)C(C)C [Example 10] (I: Ac-VCY[Dap]E[dDab][Dab]WS[Tle]C-NH2 / II: [Dab]T[Dap][Dab][Dab][dL]L[Dab][Dab]T; disulfide I:2-I:11; amide I:5-II:N; lactam II:4-II:C) | 0.125 (≈ 0.0538 µM) | 0.25 (≈ 0.108 µM) | 0.125 (≈ 0.0538 µM) | 0.25 (≈ 0.108 µM) | 8 (≈ 3.44 µM) | 0.125 (≈ 0.0538 µM) | 0.25 (≈ 0.108 µM) | 0.5 (≈ 0.215 µM) | <1 |
| CC(=O)N[C@H](C(=O)N[C@H]1CSSC[C@@H](C(=O)N[C@@H](CO)C(N)=O)NC(=O)[C@H](C(C)C)NC(=O)[C@H](CCC(=O)O)NC(=O)[C@H](Cc2c[nH]c3ccccc23)NC(=O)[C@H](CCN)NC(=O)[C@@H](CCN)NC(=O)[C@H](CCC(=O)N[C@@H](CCN)C(=O)N[C@H](C(=O)N[C@@H](CN)C(=O)N[C@H]2CCNC(=O)[C@H]([C@@H](C)O)NC(=O)[C@H](CCN)NC(=O)[C@H](CCN)NC(=O)[C@H](CC(C)C)NC(=O)[C@@H](CC(C)C)NC(=O)[C@H](CCN)NC2=O)[C@@H](C)O)NC(=O)[C@H](CCN)NC(=O)[C@H](Cc2ccc(O)cc2)NC1=O)C(C)C [Ex. 153] (I: Ac-VCY[Dab]E[dDab][Dab]WEVCS-NH2 / II: [Dab]T[Dap][Dab][Dab][dL]L[Dab][Dab]T; disulfide I:2-I:11; amide I:5-II:N; lactam II:4-II:C) | 0.0625 (≈ 0.0255 µM) | 0.0625 (≈ 0.0255 µM) | 0.03125 (≈ 0.0127 µM) | 0.125 (≈ 0.0509 µM) | 0.125 (≈ 0.0509 µM) | 0.125 (≈ 0.0509 µM) | 0.0625 (≈ 0.0255 µM) | 0.25 (≈ 0.102 µM) | <1 |
| CC(C)C[C@@H]1NC(=O)[C@@H](CC(C)C)NC(=O)[C@H](CCN)NC(=O)[C@@H](NC(=O)[C@H](CN)NC(=O)[C@@H](NC(=O)[C@H](CCN)NC(=O)CC[C@H]2NC(=O)[C@H](CCCN)NC(=O)[C@H](CCN)NC(=O)[C@H](Cc3ccc(O)cc3)NC(=O)[C@@H](NC(=O)[C@@H](O)C(C)C)CSSC[C@@H](C(=O)NC(CO)CO)NC(=O)[C@H](C(C)(C)C)NC(=O)[C@H](CO)NC(=O)[C@H](Cc3c[nH]c4ccccc34)NC(=O)[C@H]([C@@H](C)O)NC2=O)[C@@H](C)O)CCNC(=O)[C@H]([C@@H](C)O)NC(=O)[C@H](CCN)NC(=O)[C@H](CCN)NC1=O [Ex. 163] (I: H-[Hiv]CY[Dab][Orn][dE]TWS[Tle]C-{NHCH(CH2OH)2} / II: [Dab]T[Dap][Dab][Dab][dL]L[Dab][Dab]T; disulfide I:2-I:11; amide I:6-II:N; lactam II:4-II:C) | 0.25 (≈ 0.105 µM) | 0.25 (≈ 0.105 µM) | 0.125 (≈ 0.0524 µM) | 4 (≈ 1.68 µM) | 0.5 (≈ 0.209 µM) | 0.25 (≈ 0.105 µM) | 0.125 (≈ 0.0524 µM) | 0.5 (≈ 0.209 µM) | 1 |
| CCCC[C@H](NC(C)=O)C(=O)N[C@H](C(=O)N[C@@H](Cc1ccc(O)cc1)C(=O)N[C@H]1CSSC[C@@H](C(=O)N[C@H](C(=O)N[C@H](C(=O)N[C@H](C(N)=O)[C@@H](C)O)[C@@H](C)O)[C@@H](C)CC)NC(=O)[C@H](Cc2c[nH]c3ccccc23)NC(=O)[C@H](CO)NC(=O)[C@@H](CCN)NC(=O)[C@H](CCC(=O)N[C@@H](CCN)C(=O)N[C@H](C(=O)N[C@@H](CN)C(=O)N[C@H]2CCNC(=O)[C@H]([C@@H](C)O)NC(=O)[C@H](CCN)NC(=O)[C@H](CCN)NC(=O)[C@H]([C@H](O)C(C)C)NC(=O)[C@@H](CC(C)C)NC(=O)[C@H](CCN)NC2=O)[C@@H](C)O)NC1=O)[C@@H](C)O [Ex. 223] (I: Ac-[Nle]TYCE[dDab]SWCITT-NH2 / II: [Dab]T[Dap][Dab][Dab][dL][Leu(3R-OH)][Dab][Dab]T; disulfide I:4-I:9; amide I:5-II:N; lactam II:4-II:C) | 0.03125 (≈ 0.0126 µM) | 0.0625 (≈ 0.0253 µM) | 0.03125 (≈ 0.0126 µM) | 0.0625 (≈ 0.0253 µM) | 0.125 (≈ 0.0506 µM) | 0.125 (≈ 0.0506 µM) | 0.03125 (≈ 0.0126 µM) | 0.25 (≈ 0.101 µM) | <1 |
